Assay results: patent publication US11564394B2, “Distorted gold (I)-phosphine complexes and methods for use as antifungal agents” (University of Kentucky Research Foundation, priority 2019, dated 2023)
≈ marks a conversion by molar mass, not a printed value. Read-outs that look alike come from different tables or passages of the source.

Key:
[1] = test system: C. auris AR Bank # 0387 (strain VI); assay: MIC determination (broth microdilution); type: cell-based, Candida auris; details: strain VI = C. auris AR Bank # 0387; MIC-0; 48 h (CAS read at 24 h)
[2] = test system: F. graminearum 053 (strain T); type: cell-based, Fusarium graminearum; details: strain T = F. graminearum 053; MIC-0; room temperature, 5 days
[3] = test system: C. neoformans CN2 (strain O); assay: MIC determination (broth microdilution); type: cell-based, Cryptococcus neoformans; details: MIC-0, 72 h at 35° C.
[4] = test system: four mammalian cell lines (A549, BEAS-2B, HEK-293, J774A.1); assay: Mammalian cytotoxicity assays, summary over cell lines; type: cell-based; details: for IC50: read-out: IC50 values (range over cell lines); for cell survival: at 15.6 μg/mL, excluding auranofin with J774A.1
Source text: For cytotoxicity assays, the human embryonic kidney cell line (HEK-293) was purchased from the ATCC. The human bronchial epithelial cell line (BEAS-2B), the human lung carcinoma cell line (A549), and the mouse macrophage cell line (J774A.1) were generous gifts from Prof. David K. Orren (University of Kentucky, Lexington, Ky.), Prof. Markos Leggas (University of Kentucky, Lexington, Ky.), and Prof. David J. Feola (University of Kentucky, Lexington, Ky.), respectively. A549, HEK-293, and BEAS-2B cells were cultured in Dulbecco's Modified Eagle's Medium (DMEM, catalog #VWRL0100, VWR, Chicago, Ill.) supplemented with 10% fetal bovine serum (FBS; from ATCC) and 1% penicillin/streptomycin (from ATCC) at 37° C. with 5% CO2. The J774A.1 cells were cultured in DMEM (catalog #30-2002, ATCC, Manassas, Va.), which was also supplemented with FBS and antibiotics and grown at 37° C. with 5% CO2.
To examine whether the compounds are safe for human cells, cytotoxicity assays were done against four mammalian cell lines: HEK-293, A549, BEAS-2B, and J774A.1 cells. […] HEK-293 and J774A.1 cells were plated at 1×10^4 cells/mL while A549 and BEAS-2B were plated at 3×10^3 cells/mL. Compounds were tested in concentrations ranging from 0.06 to 15.6 μg/mL with final concentration of DMSO at 0.5% (FIG. 4A-D).

[5] = test system: C. albicans ATCC MYA-1003(R) (strain A); type: cell-based, Candida albicans; details: strain A = C. albicans ATCC MYA-1003(R); MIC-0; 48 h at 35° C.
[6] = test system: C. krusei ATCC 6258 (strain I); assay: MIC determination (broth microdilution); type: cell-based; details: strain I = C. krusei ATCC 6258; MIC-0; 48 h; listed as split over r16 and r17 (r17 printed beside letter J)
[7] = test system: C. auris AR Bank # 0381 (strain I); assay: MIC determination (broth microdilution); type: cell-based, Candida auris; details: strain I = C. auris AR Bank # 0381; MIC-0; 48 h (CAS read at 24 h)
[8] = test system: C. auris AR Bank # 0384 (strain K) biofilm; type: cell-based, Candida auris; details: treated at 0 h, XTT
[9] = test system: C. auris AR Bank # 0389 (strain VIII); assay: MIC determination (broth microdilution); type: cell-based, Candida auris; details: strain VIII = C. auris AR Bank # 0389; MIC-0; 48 h (CAS read at 24 h)
[10] = test system: C. auris AR Bank # 0385 (strain IV); assay: MIC determination (broth microdilution); type: cell-based, Candida auris; details: strain IV = C. auris AR Bank # 0385; MIC-0; 48 h (CAS read at 24 h)
[11] = test system: C. auris AR Bank # 0383 (strain III); assay: MIC determination (broth microdilution); type: cell-based, Candida auris; details: strain III = C. auris AR Bank # 0383; MIC-0; 48 h (CAS read at 24 h)
[12] = test system: C. glabrata ATCC 2001 (strain H) pre-formed biofilm; assay: Disruption of pre-formed biofilm (XTT); type: cell-based, Candida glabrata; details: for Pre-formed biofilm SMIC90: biofilm treated at 24 h, XTT
[13] = test system: C. albicans ATCC MYA-1237(R) (strain C); type: cell-based, Candida albicans; details: strain C = C. albicans ATCC MYA-1237(R); MIC-0; 48 h; listed as printed beside letter D
[14] = test system: C. albicans ATCC 10231 (strain B) biofilm; assay: Prevention of biofilm formation (XTT); type: cell-based, Candida albicans; details: treated at 0 h, 90% decrease in metabolic activity (XTT)
[15] = test system: C. auris AR Bank # 0388 (strain VII); assay: MIC determination (broth microdilution); type: cell-based, Candida auris; details: strain VII = C. auris AR Bank # 0388; MIC-0; 48 h (CAS read at 24 h)
[16] = test system: A. terreus ATCC MYA-3633 (strain R); type: cell-based, Aspergillus terreus; details: strain R = A. terreus ATCC MYA-3633; MIC-0; 72 h at 35° C.
[17] = test system: C. auris AR Bank # 0384 (strain K) pre-formed biofilm; type: cell-based, Candida auris; details: biofilm treated at 24 h, XTT
[18] = test system: C. albicans ATCC 10231(R) (strain B); type: cell-based, Candida albicans
[19] = test system: C. albicans ATCC 10231 (strain B) pre-formed biofilm; assay: Disruption of pre-formed biofilm (XTT); type: cell-based, Candida albicans; details: for Pre-formed biofilm SMIC90: biofilm treated at 24 h, XTT
[20] = test system: C. auris AR Bank # 0382 (strain II); assay: MIC determination (broth microdilution); type: cell-based, Candida auris; details: strain II = C. auris AR Bank # 0382; MIC-0; 48 h (CAS read at 24 h)
[21] = strain B = C. albicans ATCC 10231(R), MIC-0, 48 h, listed as split over r8 and r9 (r9 printed beside letter C)

Compound	MIC [1] [µg/mL]	MIC (in parentheses) [1] [µM]	MIC [2] [µg/mL]	MIC (in parentheses) [2] [µM]	MIC [3] [µg/mL]	MIC (in parentheses) [3] [µM]	cell survival [4]	MIC [5] [µg/mL]	MIC (in parentheses) [5] [µM]	MIC [6] [µg/mL]	MIC (in parentheses) [6] [µM]	Biofilm prevention SMIC90 [8] [µg/mL]	Pre-formed biofilm SMIC90 [12] [µg/mL]	MIC [13] [µg/mL]	MIC (in parentheses) [13] [µM]	Biofilm prevention SMIC90 [14] [µg/mL]	MIC [16] [µg/mL]	MIC (in parentheses) [16] [µM]	Pre-formed biofilm SMIC90 [17] [µg/mL]	Pre-formed biofilm SMIC90 [19] [µg/mL]	further results
bis-[1,2-bis[(2S,5S)-2,5-dimethylphospholano]benzene]gold(I) [Compound 4]	1.95	2.3	3.9	4.6	0.98	1.2	no cell survival	0.98	1.2	1.95	2.3	3.9	7.8	0.98	1.2	3.9	1.95	2.3	7.8	7.8	IC50 ([4]; BEAS-2B, HEK-293, and J774A.1): 1500 to 2000 nM; MIC [7]: 0.98 µg/mL; MIC (in parentheses) [7]: 1.2 µM; MIC [9]: 1.95 µg/mL; MIC (in parentheses) [9]: 2.3 µM; MIC [10]: 1.95 µg/mL; MIC (in parentheses) [10]: 2.3 µM; MIC [11]: 1.95 µg/mL; MIC (in parentheses) [11]: 2.3 µM; SMIC90 of pre-formed biofilm relative to MIC with planktonic cells [12]: 4 fold; MIC [15]: 1.95 µg/mL; MIC (in parentheses) [15]: 2.3 µM; MIC [18]: 1.95 (2.3) μg/mL; MIC (in parentheses) [18]: 1.95 (2.3) μM; SMIC90 of pre-formed biofilm relative to MIC with planktonic cells [19]: 4 fold; MIC [20]: 1.95 µg/mL; MIC (in parentheses) [20]: 2.3 µM
CC(=O)OC[C@H]1O[C@@H]([S-])[C@H](OC(C)=O)[C@@H](OC(C)=O)[C@@H]1OC(C)=O.CCP(CC)CC.[Au+] [Auranofin, auranofin, reference compound]			> 31.3	> 46.1	7.8	11.5	no cell survival	> 31.3	> 46.1	31.3	46.1	>31.3	>31.3	> 31.3	> 46.1	7.8	7.8	11.5	>31.3	7.8	IC50 ([4]; A549, BEAS-2B, and HEK-293 cell lines): 500 to 3000 nM; Pre-formed biofilm SMIC90 ([12]; listed as auranofin): inactive; MIC [18, 21]: > 31.3 µg/mL; MIC (in parentheses) [18, 21]: > 46.1 µM; Pre-formed biofilm SMIC90 ([19]; listed as auranofin): the same SMIC90 as compound 4
C[C@@H]1[C@H](O)[C@@H](C)/C=C/C=C/C=C/C=C/C=C/C=C/C=C/[C@H](O[C@@H]2O[C@H](C)[C@@H](O)[C@H](N)[C@@H]2O)C[C@@H]2O[C@](O)(C[C@@H](O)C[C@@H](O)[C@H](O)CC[C@@H](O)C[C@@H](O)CC(=O)O[C@H]1C)C[C@H](O)[C@H]2C(=O)O [AmB, amphotericin B, reference compound]	1.95 (≈ 2.11 µM)	2.1 (≈ 1.94 µg/mL)	7.8 (≈ 8.44 µM)	8.4 (≈ 7.76 µg/mL)	1.95 (≈ 2.11 µM)	2.1 (≈ 1.94 µg/mL)		0.98 (≈ 1.06 µM)	1.1 (≈ 1.02 µg/mL)	3.9 (≈ 4.22 µM)	4.2 (≈ 3.88 µg/mL)	1.95	7.8	3.9 (≈ 4.22 µM)	4.2 (≈ 3.88 µg/mL)	0.98	7.8 (≈ 8.44 µM)	8.4 (≈ 7.76 µg/mL)	1.95	31.3	MIC [7]: 1.95 µg/mL (≈ 2.11 µM); MIC (in parentheses) [7]: 2.1 µM (≈ 1.94 µg/mL); MIC [9]: 1.95 µg/mL (≈ 2.11 µM); MIC (in parentheses) [9]: 2.1 µM (≈ 1.94 µg/mL); MIC [10]: 1.95 µg/mL (≈ 2.11 µM); MIC (in parentheses) [10]: 2.1 µM (≈ 1.94 µg/mL); MIC [11]: 1.95 µg/mL (≈ 2.11 µM); MIC (in parentheses) [11]: 2.1 µM (≈ 1.94 µg/mL); SMIC90 of pre-formed biofilm relative to MIC with planktonic cells [12]: 2 fold; MIC [15]: 1.95 µg/mL (≈ 2.11 µM); MIC (in parentheses) [15]: 2.1 µM (≈ 1.94 µg/mL); MIC [18, 21]: 1.95 µg/mL (≈ 2.11 µM); MIC (in parentheses) [18, 21]: 2.1 µM (≈ 1.94 µg/mL); SMIC90 of pre-formed biofilm relative to MIC with planktonic cells [19]: 32 fold; MIC [20]: 0.98 µg/mL (≈ 1.06 µM); MIC (in parentheses) [20]: 1.1 µM (≈ 1.02 µg/mL)
bis-[1,2-bis[(2R,5R)-2,5-dimethylfphospholano]benzene]gold(1) [Compound 6]	1.95	2.3	3.9	4.6	0.49	0.6	no cell survival	0.49	0.6	0.98	0.6	3.9	3.9	0.98	1.2	0.98	3.9	4.6	7.8	3.9	MIC [7]: 0.98 µg/mL; MIC (in parentheses) [7]: 1.2 µM; MIC [9]: 1.95 µg/mL; MIC (in parentheses) [9]: 2.3 µM; MIC [10]: 1.95 µg/mL; MIC (in parentheses) [10]: 2.3 µM; MIC [11]: 3.9 µg/mL; MIC (in parentheses) [11]: 4.6 µM; SMIC90 of pre-formed biofilm relative to MIC with planktonic cells [12]: 4 fold; MIC [15]: 1.95 µg/mL; MIC (in parentheses) [15]: 2.3 µM; MIC [18]: 0.98 (1.2) μg/mL; MIC (in parentheses) [18]: 0.98 (1.2) μM; SMIC90 of pre-formed biofilm relative to MIC with planktonic cells [19]: 4 fold; MIC [20]: 0.98 µg/mL; MIC (in parentheses) [20]: 1.2 µM
